In ChEMBL document CHEMBL3112489 (Bioorg Med Chem Lett, 2014):

Experiments:
[1] = Inhibition of Legionella pneumophila carbonic anhydrase 1 preincubated for 15 mins by stopped-flow CO2 hydrase assay
[2] = Inhibition of Legionella pneumophila carbonic anhydrase 2 preincubated for 15 mins by stopped-flow CO2 hydrase assay

Structure (SMILES) | Ki [1] [µM] | Ki [2] [µM]
O=S(=O)([O-])[O-].[Na+].[Na+] [SODIUM SULFATE ANHYDROUS] | 77900 | 96500
S=C(S)S [SODIUM CARBONOTRITHIOATE] | 530 | 620
NS(=O)(=O)O [SULFAMATE] | 76 | 13
N#CO [SODIUM CYANATE] | 660 | 960
NS(N)(=O)=O [SULFAMIDE] | 94 | –
O=S(=O)(O)OOS(=O)(=O)O [SODIUM PERSULFATE] | 850 | 570
N=C=[Se] [SODIUM ISOSELENOCYANATE] | 980 | 660
[I-].[Na+] [SODIUM IODIDE] | 320 | 59100
O=S([O-])O.[Na+] [SODIUM BISULFITE] | 6600 | 7200
[O-][Cl+3]([O-])([O-])O [SODIUM PERCHLORATE] | > 200000 | > 200000
[F-].[Na+] [SODIUM FLUORIDE] | 910 | 770
O=[Se](=O)(O)O [SODIUM SELENATE] | 7300 | 660
CCN(CC)C(=S)S [DITIOCARB SODIUM] | 6 | 2
O=S(=O)(O)NS(=O)(=O)O [SODIUM IMINODISULFONATE] | 1170 | 590
[Br-].[Na+] [SODIUM BROMIDE] | 650 | 8000
O=P(O)(O)OP(=O)(O)O [SODIUM PYROPHOSPHATE] | 940 | 830
O=BOB(O)OB(O)OB=O [SODIUM TETRABORATE] | 600 | 550
O=[Te](=O)(O)O [SODIUM TELLURATE] | 240 | 290
O=NO [SODIUM NITRITE] | 7900 | 5800
O=[As](O)(O)c1ccccc1 [PHENYLARSONIC ACID] | 84 | 8
CC(=O)Nc1nnc(S(N)(=O)=O)s1 [ACETAZOLAMIDE] | 0.095 | 0.036
OB(O)c1ccccc1 [PHENYLBORONIC ACID] | 65 | 6
O=C([O-])O.[Na+] [SODIUM BICARBONATE] | 3500 | 6600
O=C([O-])[O-].[Na+].[Na+] [SODIUM CARBONATE] | 4700 | 4800
N=C=S [SODIUM ISOTHIOCYANATE] | 520 | 880
[N-]=[N+]=[N-] [SODIUM AZIDE] | 77 | 450
F[B-](F)(F)F.[Na+] [SODIUM TETRAFLUOROBORATE] | > 200000 | > 200000
S [SODIUM HYDROSULFIDE] | 76 | 510
[Cl-].[Na+] [SODIUM CHLORIDE] | 790 | 810
O=[N+]([O-])[O-].[Na+] [SODIUM NITRATE] | 7600 | 30100
